These results are taken from patent publication EP1900728A1 (Genecare Research Institute Co., Ltd, priority 2005, dated 2006).

Like-named read-outs stand apart in the source and are kept apart here. Where only a bound is given, the exact number is not on record here.

The target in assay [1] is T1, IκBα ubiquitinating enzyme (SCF complex: ROC1, Cullin1, Skp1, His-TrCP1; with E1, UbcH5b) (Homo sapiens, UniProt P62877+P63208+Q13616+Q9Y297).
T1 construct: His (polyhistidine); made in house; host or cells: insect cells (baculovirus) for the SCF complex and His-E1; E. coli for His-UBCH5b
As to the kind of experiment: Measurement of ubiquitinating enzyme activity (IκBα ubiquitination, time-resolved fluorescence with Eu(K)-labeled ubiquitin and XL665-labeled anti-GST antibody). The format is biochemical. In short, it runs like this:
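Human SCF complex with E1 and UbcH5b ubiquitinated GST-IκBα pre-phosphorylated by IKKβ (2 mM ATP, pH 7.4, 1 h, RT), with Eu(K)-ubiquitin, 30 min RT. Stopped with EDTA, XL665 anti-GST added for 2 h; 665/620 nm TR-FRET ratio. % inhibition versus no-compound control and no-SCF blank gave IC50.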

The test system of assay [2] is ICAM-1 expression in HT-29 cells. As to the kind of experiment: Measurement of ICAM-1 expressing activity (TNFα-induced ICAM-1 expression, cell ELISA). The format is cell-based. The settings on record: Homo sapiens, Table 6, cell activity inhibition test by method (3), read-out: EVALUATION (IC50 class, inhibition of cell activity). As to the method: Method 2: Measurement of ICAM-1 expressing activity
2.0 x 10^4 HT-29 cells (ATCC) were plated onto a 96-well plate, and the cells were cultured for 48 hours using a McCoy' 5A medium (GIBCO) containing 10% inactivated fetal calf serum. The culture medium was removed, a culture medium containing a compound to be evaluated (final DMSO concentration of 0.5%) was added, and this was incubated at 37°C for 30 minutes. Thirty ng/mL of human TNFα (GIBCO) was added, and this was incubated at 37°C for 4 hours. After washing once with a washing solution (PBS containing 0.05% Tween 20), ice-cooled methanol was added, and this was left on ice for 10 minutes and then fixed. After removing methanol, PBS containing 1% BSA was added, and blocking was performed by letting this stand at room temperature for 30 minutes. Anti-ICAM-1 antibody (Santa Cruz Biotechnology) was added, and this was left to stand at room temperature for 1 hour. After washing with the washing solution, POD-labeled secondary antibody was added, and this was left to stand at room temperature for 30 minutes. This was washed, 100 µL of 100 mM citric acid buffer (pH4.2) containing 1 mM TMBZ and 0.03% H2O2 was added, and this was reacted at room temperature for 15 minutes. The reaction was terminated with 100 µL of 2 N H2SO4, and the absorbance at 450 nm was measured using ARVO-HTS (Perkin Elmer).
When cells are stimulated with TNFα, IκBα is degraded after ubiquitination resulting in the activation of NFκB and the promotion of the expression of adhesion factor ICAM-1. Therefore, the suppression of ICAM-1 expression described above serves as an indicator to determine the effectiveness of the compound in the cells.

Where [3] appears, read: enzyme activity inhibition test, method (1), Table 5, read-out: EVALUATION

T1 sequence (Q9Y297 whole entry): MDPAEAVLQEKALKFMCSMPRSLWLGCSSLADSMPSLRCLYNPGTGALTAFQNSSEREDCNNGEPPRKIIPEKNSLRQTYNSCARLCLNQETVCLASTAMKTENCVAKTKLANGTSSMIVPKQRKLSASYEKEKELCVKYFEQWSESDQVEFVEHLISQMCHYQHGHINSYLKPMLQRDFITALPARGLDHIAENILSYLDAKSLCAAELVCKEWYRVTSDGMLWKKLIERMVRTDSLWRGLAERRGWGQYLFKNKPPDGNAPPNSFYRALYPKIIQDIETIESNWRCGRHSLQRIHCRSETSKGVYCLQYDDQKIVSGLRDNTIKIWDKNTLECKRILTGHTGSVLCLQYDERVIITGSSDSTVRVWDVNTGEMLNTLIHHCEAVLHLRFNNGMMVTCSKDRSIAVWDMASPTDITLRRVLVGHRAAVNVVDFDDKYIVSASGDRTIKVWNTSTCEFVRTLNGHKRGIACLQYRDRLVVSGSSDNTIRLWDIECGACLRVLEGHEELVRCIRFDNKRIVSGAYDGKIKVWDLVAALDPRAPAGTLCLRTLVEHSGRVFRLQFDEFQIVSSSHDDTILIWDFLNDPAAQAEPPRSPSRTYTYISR
T1 sequence (Q13616 whole entry): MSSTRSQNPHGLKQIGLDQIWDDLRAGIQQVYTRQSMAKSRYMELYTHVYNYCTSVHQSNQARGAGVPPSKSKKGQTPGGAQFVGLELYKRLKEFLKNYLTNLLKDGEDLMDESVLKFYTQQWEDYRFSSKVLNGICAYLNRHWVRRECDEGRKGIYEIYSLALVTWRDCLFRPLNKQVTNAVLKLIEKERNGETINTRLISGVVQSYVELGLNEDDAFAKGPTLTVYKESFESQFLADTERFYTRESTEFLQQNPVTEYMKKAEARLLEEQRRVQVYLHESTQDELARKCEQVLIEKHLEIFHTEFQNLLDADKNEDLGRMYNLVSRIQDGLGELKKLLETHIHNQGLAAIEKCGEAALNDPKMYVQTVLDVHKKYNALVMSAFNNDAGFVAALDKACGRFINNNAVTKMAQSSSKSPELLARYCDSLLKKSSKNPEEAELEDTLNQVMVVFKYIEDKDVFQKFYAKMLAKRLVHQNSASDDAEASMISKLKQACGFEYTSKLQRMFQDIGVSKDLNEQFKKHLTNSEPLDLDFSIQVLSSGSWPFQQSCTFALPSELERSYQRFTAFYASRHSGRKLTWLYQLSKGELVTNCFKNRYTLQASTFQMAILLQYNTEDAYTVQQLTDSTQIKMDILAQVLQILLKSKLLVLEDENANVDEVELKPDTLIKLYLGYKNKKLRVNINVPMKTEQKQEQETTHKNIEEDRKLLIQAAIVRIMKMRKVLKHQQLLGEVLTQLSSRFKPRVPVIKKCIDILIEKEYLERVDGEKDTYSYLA
T1 sequence (P63208 whole entry): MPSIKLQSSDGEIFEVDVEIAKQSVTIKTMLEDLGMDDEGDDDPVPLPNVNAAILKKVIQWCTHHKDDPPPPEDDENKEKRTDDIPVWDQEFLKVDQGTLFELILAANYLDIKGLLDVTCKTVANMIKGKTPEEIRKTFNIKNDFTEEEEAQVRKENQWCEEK
T1 sequence (P62877 whole entry): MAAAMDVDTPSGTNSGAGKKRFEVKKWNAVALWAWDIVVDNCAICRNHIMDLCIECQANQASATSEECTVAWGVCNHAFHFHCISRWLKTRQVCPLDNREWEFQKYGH

`O=C(O)c1ccc(N2N=C(C3CC3)/C(=C/c3ccc(-n4cncn4)cc3)C2=O)cc1` [Compound 323]: the IC50 was less than 10 µM in assay [1] (setting [3]) and less than 40 µM in assay [2].
On the same counts, the results for `Cn1cc(-c2ccc(/C=C3\C(=O)N(c4ccc(C(=O)O)cc4)N=C3c3ccoc3)o2)cn1` [Compound 489] are less than 10 µM and less than 10 µM.
With `CC1=NN(c2cccc(C(=O)O)c2)C(=O)/C1=C\c1ccc(N2CCN(C(=O)c3ccccc3)CC2)cc1` [Compound 440], the values for the IC50 in assay [1] (setting [3]) and in assay [2] were less than 10 µM and 10 to 20 µM, respectively.
Turning to `CC1=NN(c2ccc(S(N)(=O)=O)cc2)C(=O)/C1=C\c1ccc(OCC(N)=O)cc1` [Compound 208], the IC50 in assay [1] (setting [3]) was less than 10 µM; in assay [2] it was less than 40 µM.
For `CC1=NN(c2ccc(C(=O)O)cc2)C(=O)/C1=C\c1ccc2c(ccn2Cc2csc(C)n2)c1` [Compound 500], in that order: less than 10 µM and less than 40 µM.
On to `COC(=O)N1CCN(c2ccc(C=C3C(=O)N(c4ccc(C(=O)O)cc4)N=C3c3cccnc3)cc2)CC1` [Compound 307], for which the IC50 was 10 to 20 µM in assay [1] and less than 40 µM in assay [2].
Turning to `CC1=NN(c2ccc(S(N)(=O)=O)cc2)C(=O)/C1=C\c1ccc(Oc2ccccc2)cc1` [Compound 213], the IC50 in assay [1] (setting [3]) is 10 to 20 µM; in assay [2] it was less than 10 µM.
On the same counts, the results for `CC1=NN(c2ccc(C(=O)O)cc2)C(=O)/C1=C\c1ccc(-c2ccccc2Cl)o1` [Compound 456] are less than 10 µM and less than 10 µM.
For `CC1=NN(c2ccccc2)C(=O)/C1=C\c1ccc2[nH]ccc2c1` [Compound 127], in that order: less than 10 µM and less than 40 µM.
`CCCNC(=O)COc1ccc(C=C2C(=O)N(c3ccccc3)N=C2C)cc1` [Compound 204]: the IC50 in assay [1] and in assay [2] was 10 to 20 µM throughout.
In the case of `CC1=NN(c2ccc(C(=O)O)cc2)C(=O)/C1=C\c1ccc(-n2ccnc2)cc1` [Compound 258], the IC50 was less than 10 µM in assay [1] (setting [3]) and 10 to 20 µM in assay [2].
On the same counts, the results for `CC1=NN(c2ccc(C(=O)O)cc2)C(=O)/C1=C\c1ccc(CO)o1` [Compound 255] are less than 10 µM and 10 to 20 µM.
On the same counts, the results for `CC1=NN(c2ccc(C(=O)O)cc2)C(=O)/C1=C\c1ccc(-n2cncn2)cc1` [Compound 262] are less than 10 µM and 10 to 20 µM.
On the same counts, the results for `O=C(O)c1ccc(N2N=C(Cc3ccccc3)/C(=C/c3ccc(-c4ccccc4F)o3)C2=O)cc1` [Compound 267, 4-{3-Benzyl-4-[5-(2-fluorophenyl)-furan-2-ylmethylenc]-5-oxo-4.5-dihydropyrazol-1-yl} benzoic acid] are less than 10 µM and less than 10 µM.
With `CC1=NN(c2cccc(C(=O)O)c2)C(=O)/C1=C\c1ccc(N2CCN(c3ccc(F)cc3)CC2)cc1` [Compound 449], the IC50 was less than 10 µM in assay [1] (setting [3]) and 10 to 20 µM in assay [2].
For `CCCCC1=NN(c2ccc(C(=O)O)cc2)C(=O)/C1=C\c1ccc(N2CCN(c3ccccc3)CC2)cc1` [Compound 434], in that order: less than 10 µM and less than 40 µM.
For `COCC1=NN(c2ccc(C(=O)O)cc2)C(=O)/C1=C\c1ccc(-n2cccn2)cc1` [Compound 242], in that order: less than 10 µM and 10 to 20 µM.
On the same counts, the results for `O=C1/C(=C\c2ccc3ccccc3c2)C(C2CC2)=NN1c1ccccc1` [Compound 70] are 10 to 20 µM and less than 40 µM.
As for `CC1=NN(c2ccccc2)C(=O)C1=Cc1ccc(Oc2ccccc2)cc1` [Compound 212], the IC50 in assay [1] and in assay [2] was 10 to 20 µM each time.
For `CCOC(=O)c1ccc(COc2ccc(/C=C3\C(=O)N(c4ccc(C(=O)O)cc4)N=C3C)cc2OC)o1` [Compound 392], the IC50 is less than 10 µM in assay [1] (setting [3]) and 10 to 20 µM in assay [2].
For `CC1=NN(c2ccc(C(=O)O)cc2)C(=O)/C1=C\c1ccc2ccccc2c1` [Compound 253], in that order: less than 10 µM and 10 to 20 µM.
For `CCCCC1=NN(c2ccccc2)C(=O)/C1=C\c1ccc(N2CCN(C(=O)OC)CC2)cc1` [Compound 54], in that order: 10 to 20 µM and less than 40 µM.
On the same counts, the results for `O=C(O)c1ccc(N2N=C(c3ccncc3)/C(=C/c3ccc(CO)o3)C2=O)cc1` [Compound 334] are less than 10 µM and less than 40 µM.
For `COc1ccc(C2=NN(c3ccc(C(=O)O)cc3)C(=O)/C2=C\c2ccc(CO)o2)cc1OC` [Compound 280], the IC50 in assay [1] (setting [3]) was 10 to 20 µM; in assay [2], less than 40 µM.
On the same counts, the results for `CC1=NN(c2ccc(C(=O)O)cc2)C(=O)/C1=C\c1ccc(-c2cccc(Cl)c2)o1` [Compound 454] are less than 10 µM and less than 40 µM.
On the same counts, the results for `CCOC(=O)COc1ccc(/C=C2\C(=O)N(c3ccc(C(=O)O)cc3)N=C2C)cc1` [Compound 540] are less than 10 µM and less than 40 µM.
For `O=C(O)c1cccc(N2N=C(Cc3ccccc3)/C(=C/c3ccc(-c4ccccc4F)o3)C2=O)c1` [Compound 519], in that order: 10 to 20 µM and less than 10 µM.
Take `CC1=NN(c2ccc(C(=O)O)cc2)C(=O)/C1=C\c1ccc(N2CCN(c3ccc(F)cc3)CC2)cc1` [Compound 448]: the values for the IC50 in assay [1] (setting [3]) and in assay [2] were less than 10 µM and 10 to 20 µM, respectively.
For `CC1=NN(c2cccc(C(=O)O)c2)C(=O)/C1=C\c1ccc([N+](=O)[O-])o1` [Compound 425], in that order: less than 10 µM and 10 to 20 µM.
For `CC1=NN(c2ccc(S(N)(=O)=O)cc2)C(=O)/C1=C\c1ccc(-n2cccn2)cc1` [Compound 150], in that order: less than 10 µM and less than 10 µM.
For `O=C1/C(=C\c2ccc3c(c2)OCCO3)C(Cc2ccccc2)=NN1c1ccccc1` [Compound 29], in that order: 10 to 20 µM and 10 to 20 µM.
For `O=C(O)c1cccc(N2N=C(c3ccoc3)/C(=C/c3ccc(N4CCCC4)cc3)C2=O)c1` [Compound 478], the IC50 in assay [1] (setting [3]) and in assay [2] was 10 to 20 µM throughout.
Regarding `CN1CCN(c2ccc(/C=C3\C(=O)N(c4ccc(C(=O)O)cc4)N=C3C3CC3)cc2)CC1` [Compound 321], the IC50 in assay [1] (setting [3]) is less than 10 µM; in assay [2] it was less than 40 µM.
On the same counts, the results for `COc1cc(/C=C2\C(=O)N(c3ccccc3)N=C2Cc2ccccc2)ccc1OCc1ccccc1` [Compound 24] are 10 to 20 µM and less than 40 µM.
For `O=C(O)c1ccc(N2N=C(c3ccoc3)/C(=C/c3ccc(-c4ccccc4F)o3)C2=O)cc1` [Compound 246], in that order: less than 10 µM and less than 10 µM.
For `CC1=NN(c2ccc(S(N)(=O)=O)cc2)C(=O)/C1=C\c1ccc2c(c1)OCCO2` [Compound 108], the IC50 in assay [1] (setting [3]) was 10 to 20 µM; in assay [2], less than 40 µM.
For the compound `COc1cc(C=C2C(=O)N(Cc3ccccc3)N=C2C)ccc1O` [Compound 201], the IC50 in assay [1] is less than 10 µM; in assay [2] it was 10 to 20 µM.
For `CCCCC1=NN(c2ccc(C(=O)O)cc2)C(=O)/C1=C\c1ccc(CO)o1` [Compound 300], the values for the IC50 in assay [1] (setting [3]) and in assay [2] were less than 10 µM and 10 to 20 µM, respectively.
For the compound `CCOC(=O)c1ccccc1-c1ccc(/C=C2\C(=O)N(c3ccc(C(=O)O)cc3)N=C2C)o1` [Compound 527], the IC50 in assay [1] (setting [3]) and in assay [2] was less than 10 µM each time.
On to `CC1=NN(c2ccc(S(N)(=O)=O)cc2)C(=O)/C1=C\c1ccc(C(C)(C)C)cc1` [Compound 115], for which the values for the IC50 in assay [1] (setting [3]) and in assay [2] were less than 10 µM and 10 to 20 µM, respectively.
On the same counts, the results for `COCC1=NN(c2ccc(C(=O)O)cc2)C(=O)/C1=C\c1ccc2c(c1)OCO2` [Compound 464] are 10 to 20 µM and less than 40 µM.
For `CCCCC1=NN(c2ccc(C(=O)O)cc2)C(=O)C1=Cc1ccc2c(c1)OCO2` [Compound 480], the IC50 in assay [1] was less than 10 µM; in assay [2] it was 10 to 20 µM.
For `O=C(O)c1ccc(N2N=C(C3CC3)/C(=C/c3ccc(N4CCCC4)cc3)C2=O)cc1` [Compound 317], the IC50 in assay [1] (setting [3]) and in assay [2] was 10 to 20 µM throughout.
For `O=C(O)c1ccc(N2N=C(c3ccoc3)/C(=C/c3ccc(-n4cncn4)cc3)C2=O)cc1` [Compound 252], the results for the IC50 in assay [1] (setting [3]) and in assay [2] were less than 10 µM and less than 40 µM, respectively.
Turning to `CC1=NN(c2ccc(C(=O)O)cc2)C(=O)C1=Cc1ccc(N2CCN(c3ccccc3)CC2)cc1` [Compound 430], the IC50 in assay [1] and in assay [2] was less than 10 µM each time.
